{
  "source": "patent US11219898B2",
  "about": "“Molecular separation by diffusion using an EWOD device” (Sharp Life Science (EU) Limited, priority 2019, dated 2022)",
  "assay": "Diffusion of fluorescein or calcein through a droplet interface bilayer in an AM-EWOD device",
  "format": "physicochemical",
  "method": "An investigation of the transport of aqueous phase elements between droplets suspended in a non-aqueous supporting medium is conducted. Phospholipid stabilized water in oil droplets are dispensed within an AM-EWOD device. Such droplets are used to produce droplet interface bilayers (DIBs) by the bringing together of individual droplets within the AM-EWOD device. DIBs are used to study diffusion of a solute across the bilayer membrane, as well as to study active transport through pores or ion channels formed in the DIB. In a first experiment, diffusion of fluorescein or calcein through a bilayer is investigated. Under conditions of neutral pH, calcein, a derivative of fluorescein, is generally more polar than fluorescein. […] Thus, fluorescein may more readily diffuse through a bilayer, whereas calcein may not. Three populations of droplets are dispensed within an AM-EWOD device. A first population contains buffer, a second population contains fluorescein at 100 μM concentration, and a third population contains calcein at 100 μM concentration. Droplets containing buffer are brought into contact respectively with droplets containing fluorescein or calcein, under control of the AM-EWOD device. Fluorescence intensity is determined at time t0, t1 (30 minutes) and t2 (60 minutes), with excitation wavelength 494 nm and emission wavelength 515 nm.",
  "data": [
    {"smiles": "O=C(O)CN(CC(=O)O)Cc1cc2c(cc1O)Oc1cc(O)c(CN(CC(=O)O)CC(=O)O)cc1C21OC(=O)c2ccccc21", "note": "[calcein]", "values": [
      {"measurement": "Fluorescence from the buffer containing droplet after DIB formation", "setting": "after 60 minutes, 100 μM dye droplet, excitation 494 nm, emission 515 nm", "result": "no detectable fluorescence"},
      {"measurement": "Diffusion across the bilayer", "setting": "summary of results", "result": "not"}
    ]}
  ]
}
